Usually IC50 stands for the concentration that inhibits the measured activity by half. As a reminder, the EC50 is the concentration giving half of the maximal effect. Usually Km stands for the substrate concentration at which the rate is half of its maximum.

Read-outs that look alike come from different tables or passages of the source. The star is where a group is joined. Lys(Fam) = Lys(Fam): lysine whose ε-amino group carries Fam (fluorescein), added using fluorescein-5-isothiocyanate; Dnp = O=[N+]([O-])c1ccc(*)c([N+](=O)[O-])c1; Mca = COc1ccc2c(CC(=O)*)cc(=O)oc2c1

The values below come from paper PMC2782546 (Chemical biology & drug design, 2009).

The subject of one experiment is ADAM-10. Conditions: ADAM-10, inhibitor concentration 50 μM; cited from earlier work.
In the next experiment the test system is MMP-13. The settings on record: MMP-13, inhibitor concentration 50 μM; cited from earlier work.
In a further experiment the test system is ADAMTS-1. Conditions: ADAMTS-1 aggrecanase activity; cited from earlier work.
Experiment [1] deals with T1, MMP-9 (Homo sapiens, UniProt P14780). The settings on record: cited from earlier work.
For experiment [2], the target named is T2, MMP-2 (Homo sapiens, UniProt P08253).
T2 sequence (P08253 110-660): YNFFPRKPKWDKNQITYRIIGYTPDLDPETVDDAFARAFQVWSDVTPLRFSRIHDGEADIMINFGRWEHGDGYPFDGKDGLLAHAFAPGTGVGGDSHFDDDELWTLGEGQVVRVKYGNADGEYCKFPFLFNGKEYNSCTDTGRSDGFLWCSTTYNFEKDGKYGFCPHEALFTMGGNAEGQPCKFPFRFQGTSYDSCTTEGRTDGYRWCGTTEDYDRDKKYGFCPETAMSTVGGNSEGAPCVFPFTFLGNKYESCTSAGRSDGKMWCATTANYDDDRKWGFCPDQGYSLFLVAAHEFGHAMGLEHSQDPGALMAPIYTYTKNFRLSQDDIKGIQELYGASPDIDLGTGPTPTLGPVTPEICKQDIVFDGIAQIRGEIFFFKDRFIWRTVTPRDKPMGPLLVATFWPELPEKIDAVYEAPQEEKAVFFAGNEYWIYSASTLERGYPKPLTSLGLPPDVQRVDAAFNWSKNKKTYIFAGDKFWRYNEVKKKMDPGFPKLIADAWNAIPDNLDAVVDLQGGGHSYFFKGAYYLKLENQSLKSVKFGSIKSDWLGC
Conditions: cited from earlier work.

Experiment [3] has as its system MMP-1. Conditions: MMP-1, inhibitor concentration 50 μM; cited from earlier work.
For a further experiment, the system named is MT1-MMP. The settings on record: cited from earlier work.
In the next experiment the test system is MMP-7. Conditions: cited from earlier work.
The test system of experiment [4] is ADAMTS-4. The settings on record: ADAMTS-4 aggrecanase activity; cited from earlier work.
The target of experiment [5] is T3, ADAMTS-5 (Homo sapiens, UniProt Q9UNA0).
T3 sequence (Q9UNA0 262-731 limits assumed): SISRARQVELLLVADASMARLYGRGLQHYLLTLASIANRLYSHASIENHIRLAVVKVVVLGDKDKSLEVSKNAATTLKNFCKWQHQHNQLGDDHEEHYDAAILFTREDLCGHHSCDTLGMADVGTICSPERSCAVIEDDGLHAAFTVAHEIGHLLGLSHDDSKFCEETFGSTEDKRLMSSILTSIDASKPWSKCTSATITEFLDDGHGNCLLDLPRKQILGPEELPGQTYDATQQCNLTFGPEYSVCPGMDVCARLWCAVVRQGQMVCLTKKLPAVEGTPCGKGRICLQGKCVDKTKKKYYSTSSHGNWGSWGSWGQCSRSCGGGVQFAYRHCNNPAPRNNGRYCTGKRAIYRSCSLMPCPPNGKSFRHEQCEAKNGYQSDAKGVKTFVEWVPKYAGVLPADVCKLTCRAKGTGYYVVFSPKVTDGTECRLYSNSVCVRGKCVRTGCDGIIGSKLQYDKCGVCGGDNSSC
As to the kind of experiment: ADAMTS-5 inhibition, RP-HPLC analysis of cleavage products. The experiment is classed as biochemical. Conditions: ADAMTS-5, data not shown.

In experiment [6] the target is T2, MMP-2. As to the kind of experiment: MMP-2 inhibition assay with FRET substrates. The experiment is classed as biochemical.
Experiment [7] concerns the target T4, ADAMTS-4 (aggrecanase-1) (Homo sapiens, UniProt O75173).
T4 sequence (O75173 213-685 limits assumed): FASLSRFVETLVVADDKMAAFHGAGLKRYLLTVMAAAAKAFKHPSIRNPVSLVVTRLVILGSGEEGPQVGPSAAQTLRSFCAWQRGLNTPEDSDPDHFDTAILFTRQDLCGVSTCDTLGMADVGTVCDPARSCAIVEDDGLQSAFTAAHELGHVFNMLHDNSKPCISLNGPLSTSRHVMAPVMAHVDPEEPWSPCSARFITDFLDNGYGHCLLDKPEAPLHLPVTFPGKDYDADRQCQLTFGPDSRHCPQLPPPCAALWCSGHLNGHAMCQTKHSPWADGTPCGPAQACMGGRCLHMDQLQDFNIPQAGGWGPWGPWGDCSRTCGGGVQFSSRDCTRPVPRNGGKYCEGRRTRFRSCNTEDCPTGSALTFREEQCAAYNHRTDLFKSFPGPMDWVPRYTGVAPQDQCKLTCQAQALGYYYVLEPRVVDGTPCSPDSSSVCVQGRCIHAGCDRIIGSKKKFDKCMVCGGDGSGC
As to the kind of experiment: ADAMTS-4 inhibition, RP-HPLC analysis of cleavage products.

In experiment [8] the target is T4, ADAMTS-4 (aggrecanase-1). As to the kind of experiment: ADAMTS-4 inhibition assay, FRET substrate hydrolysis. It is filed as biochemical.
Experiment [9] deals with T3, ADAMTS-5. As to the kind of experiment: ADAMTS-5 inhibition assay, FRET substrate hydrolysis. The experiment is classed as biochemical.
In experiment [10] the target is T5, MMP-8 (Homo sapiens, UniProt P22894). The experiment can be described thus: MMP-8 inhibition assay with FRET substrates. It is filed as biochemical.
For experiment [11], the target named is T6, MMP-12 (Homo sapiens, UniProt P39900). The experiment can be described thus: MMP-12 inhibition assay with FRET substrates. The experiment is classed as biochemical. Conditions: MMP-12, substrate fMMPSshort.
The target of experiment [12] is T1, MMP-9. The experiment can be described thus: MMP-9 inhibition assay with FRET substrates. It is filed as biochemical. The settings on record: MMP-9, substrate fMMPSlong.
The target in experiment [13] is T2, MMP-2. Conditions: cited from earlier work. The source holds these as a separate data set.
For experiment [14], the system named is MMP-1. Conditions: cited from earlier work.
In experiment [15] the target is T1, MMP-9. Conditions: cited from earlier work. This is another data set of the same source.
The target of experiment [16] is T2, MMP-2. Conditions: read-out: KM value for MMP hydrolysis; cited from earlier work.
In experiment [17] the target is T5, MMP-8. Conditions: read-out: KM value for MMP hydrolysis; cited from earlier work.
For experiment [18], the system named is ADAMTS-4. Conditions: read-out: KM value for ADAMTS-4 hydrolysis; substrate kinetics; cited from earlier work.
The target of experiment [19] is T1, MMP-9. Conditions: read-out: KM value for MMP hydrolysis; cited from earlier work.
Experiment [20] addresses T6, MMP-12. The settings on record: read-out: KM value for MMP hydrolysis; cited from earlier work.

T1 sequence (P14780 94-707, species assumed): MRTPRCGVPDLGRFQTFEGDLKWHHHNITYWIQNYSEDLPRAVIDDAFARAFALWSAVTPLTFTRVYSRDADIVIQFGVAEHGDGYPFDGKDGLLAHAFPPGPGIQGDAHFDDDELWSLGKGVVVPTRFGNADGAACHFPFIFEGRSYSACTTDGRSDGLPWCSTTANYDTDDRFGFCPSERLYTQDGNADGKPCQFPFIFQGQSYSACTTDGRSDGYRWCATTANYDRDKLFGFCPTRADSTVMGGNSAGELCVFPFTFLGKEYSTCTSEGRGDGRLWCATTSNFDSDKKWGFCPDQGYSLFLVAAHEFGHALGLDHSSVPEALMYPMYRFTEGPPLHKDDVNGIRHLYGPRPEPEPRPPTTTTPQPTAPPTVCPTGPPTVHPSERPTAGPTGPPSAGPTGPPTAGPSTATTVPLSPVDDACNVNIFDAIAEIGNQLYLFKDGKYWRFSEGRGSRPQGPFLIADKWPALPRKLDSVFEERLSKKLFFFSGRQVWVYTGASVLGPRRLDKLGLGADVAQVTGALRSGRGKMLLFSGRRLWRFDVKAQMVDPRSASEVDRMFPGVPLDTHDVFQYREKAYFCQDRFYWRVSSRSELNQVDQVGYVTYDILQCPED
T6 sequence (P39900 106-470, species assumed): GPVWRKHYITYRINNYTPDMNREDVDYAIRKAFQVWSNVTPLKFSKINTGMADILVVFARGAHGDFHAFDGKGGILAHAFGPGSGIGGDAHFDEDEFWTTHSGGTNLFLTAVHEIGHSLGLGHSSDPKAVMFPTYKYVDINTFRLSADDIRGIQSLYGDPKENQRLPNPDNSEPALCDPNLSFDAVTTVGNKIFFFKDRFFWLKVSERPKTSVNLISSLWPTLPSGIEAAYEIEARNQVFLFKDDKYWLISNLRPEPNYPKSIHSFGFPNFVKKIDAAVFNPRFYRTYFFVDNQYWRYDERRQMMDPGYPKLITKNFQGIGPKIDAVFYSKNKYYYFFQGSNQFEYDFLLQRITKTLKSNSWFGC
T5 sequence (P22894 101-467, species assumed): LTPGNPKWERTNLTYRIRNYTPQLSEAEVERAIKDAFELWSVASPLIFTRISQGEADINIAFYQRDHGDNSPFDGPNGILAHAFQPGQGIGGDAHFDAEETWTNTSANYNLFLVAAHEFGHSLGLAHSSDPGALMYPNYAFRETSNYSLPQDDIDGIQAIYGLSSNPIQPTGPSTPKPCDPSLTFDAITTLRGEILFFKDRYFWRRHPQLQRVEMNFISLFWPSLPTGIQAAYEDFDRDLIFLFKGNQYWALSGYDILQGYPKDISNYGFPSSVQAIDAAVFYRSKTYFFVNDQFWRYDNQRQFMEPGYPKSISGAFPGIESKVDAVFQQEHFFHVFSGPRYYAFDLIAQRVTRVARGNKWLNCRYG

Turning to `O=C(O[C@@H]1Cc2c(O)cc(O)cc2O[C@@H]1c1cc(O)c(O)c(O)c1)c1cc(O)c(O)c(O)c1` [Compound 1, (−)-epigallocatechin gallate], the inhibition with ADAM-10, in the experiment with MMP-13 and in the experiment with MMP-1 [3] was 14–30% throughout. The 50% inhibitory concentration (IC50) with ADAMTS-1 was 0.2 to 0.25 µM; on MMP-9 [1] (MMP-9), 0.8 to 13 µM; at MMP-2 [2] (MMP-2), 6 to 8 µM; with MT1-MMP, 0.019 µM; in the experiment with MMP-7, 1.6 µM; with ADAMTS-4 [4], 0.1 to 0.15 µM.
Regarding `O=C(O[C@@H]1Cc2c(O)cc(O)cc2O[C@@H]1c1ccc(O)c(O)c1)c1cc(O)c(O)c(O)c1` [Compound 2, (−)-epicatechin gallate], the inhibition in the experiment on ADAM-10, with MMP-13 and in the experiment on MMP-1 [3] was 14–30% each time. Besides, the IC50 in the experiment with ADAMTS-1 is 0.2 to 0.25 µM; in the experiment with ADAMTS-4 [4] it was 0.1 to 0.15 µM.
Regarding `Oc1cc(O)cc(/C=C/c2ccc(O)c(O)c2)c1` [Compound 3, (E)-4-[2-(3,5-dihydroxyphenyl)ethenyl]1,2-benzediol], at ADAMTS-5 [5], the “inhibition of substrate hydrolysis by RP-HPLC analysis” value is reported as “inhibited”. Moreover, the Ki at MMP-2 [6] (MMP-2, substrate fMMPSlong) was determined as 10 ± 0.89 µM; at MMP-2 [6] (MMP-2, substrate fMMPSshort), 12.2 ± 1.82 µM.
Take `Oc1ccc(/C=C/c2cc(O)cc(O)c2)cc1` [Compound 4, 5-[(1E)-2-(4-hydroxyphenyl)ethenyl]-1,3-benzenediol]: the figures for the IC50 against ADAMTS-4 (aggrecanase-1) [7] and against ADAMTS-4 (aggrecanase-1) [8] were above 100 µM and 50 µM, respectively. The “inhibition of MMP-9” value at MMP-9 [1] (prior study) is on record as “not an inhibitor”. Besides, on MMP-2 [2] (prior study), the “inhibition of MMP-2” value is recorded as “not an inhibitor”.
As for `C(=C\c1ccccc1)/c1ccccc1` [Compound 5, trans-1,2-diphenylethylene], the concentration for half-maximal inhibition (IC50) on ADAMTS-4 (aggrecanase-1) [7] and against ADAMTS-4 (aggrecanase-1) [8] was above 100 µM throughout.
For `C(=C/c1ccccc1)/c1ccccc1` [Compound 6, cis-1,2-diphenylethylene], the values for the half-inhibitory concentration (IC50) on ADAMTS-4 (aggrecanase-1) [7] and at ADAMTS-4 (aggrecanase-1) [8] were above 100 µM and around 100 µM, respectively.
In the case of `COc1ccc(/C=C/c2cc(O)cc(OC3OC(CO)C(O)C(O)C3O)c2)cc1` (stereo not shown) [Compound 7, 2-[3-hydroxy-5-[(E)-2-(4-methoxyphenyl)ethenyl]phenoxy]-6-(hydroxymethyl)oxane-3,4,5-triol], the concentration for half-maximal inhibition (IC50) is above 100 µM on ADAMTS-4 (aggrecanase-1) [7] and 20 µM against ADAMTS-4 (aggrecanase-1) [8].
The matching figures for `COc1ccc(C=Cc2cc(O)cc(OC3OC(CO)C(O)C(O)C3O)c2)cc1O` (stereo not shown) [Compound 8, 2-[3-hydroxy-5-[2-(3-hydroxy-4-methoxyphenyl)ethenyl]phenoxy]-6-(hydroxymethyl)oxane-3,4,5-triol]: above 100 µM and 50 µM.
The corresponding values for `Oc1ccccc1O` [Compound 9, 1,2-dihydroxybenzene] are above 100 µM and 20 µM.
`Oc1cccc(O)c1O` [Compound 10, 1,2,3-trihydroxybenzene]: on ADAMTS-5 [9] (ADAMTS-5, data not shown), the “inhibition of substrate hydrolysis by fluorescence analysis” value is “inhibited”. The Ki is 36.9 ± 8.82 µM at ADAMTS-5 [9] (Ki, ADAMTS-5, substrate fTSSshort, apparent Ki); 10.3 ± 0.94 µM at MMP-8 [10]; 34.4 ± 3.99 µM on MMP-12 [11]; 8.29 ± 0.63 µM on MMP-9 [12]; 11.3 ± 0.52 µM at MMP-2 [6] (MMP-2, substrate fMMPSshort). The “inhibition of substrate hydrolysis by RP-HPLC analysis” value on ADAMTS-5 [5] is listed as “inhibited”.
Turning to `O=c1cc(-c2ccc(O)cc2)oc2cc(O)cc(O)c12` [apigenin], at MMP-2 [13], the EC50 was 7.5 µM. Further, the half-inhibitory concentration (IC50) in the experiment with MMP-1 [14] is above 100 µM.
In the case of `O=c1c(O)c(-c2ccc(O)cc2)oc2cc(O)cc(O)c12` [kaempferol], the concentration for half-maximal inhibition (IC50) with MMP-1 [14] is 43.7 µM.
For `O=c1cc(-c2ccc(O)c(O)c2)oc2cc(O[C@@H]3O[C@H](CO)[C@@H](O)[C@H](O)[C@H]3O)cc(O)c12` [luteolin-7-O-glucoside], on MMP-9 [15] (MMP-9), the EC50 is 4.6 µM.
As to `O=c1cc(-c2ccc(O)c(O)c2)oc2cc(O)cc(O)c12` [luteolin], the Ki on MMP-9 [15] (MMP-9, noncompetitive mechanism) is 5.4 µM.
Consider `O=c1c(O)c(-c2ccc(O)c(O)c2)oc2cc(O)cc(O)c12` [quercetin], for which the concentration for half-maximal inhibition (IC50) with MMP-1 [14] was 39.6 µM.
Regarding “(Gly-Pro-Hyp)5-Gly-Pro-Lys(Mca)-Gly-Pro-Gln-Gly~Leu-Arg-Gly-Gln-Lys(Dnp)-Gly-Val-Arg-(Gly-Pro-Hyp)5-NH2 [fMMPSlong]”, the figures for the Km at MMP-2 [16] and on MMP-8 [17] were 17.2 µM and 7.6 µM, respectively.
Take “Lys(Fam)-Asp-Val-Gln-Glu-Phe-Arg-Gly-Val-Thr-Ala-Val-Ile-Arg-Lys(Tamra)-Lys-Gly-Lys-NH2 ({Lys(Fam)}-DVQEFRGVTAVIRK(Tamra)KGK-NH2) [fTSS1]”: in the experiment on ADAMTS-4 [18], the Michaelis-Menten constant (Km) is around 35 µM.
In the case of “Mca-Lys-Pro-Leu-Gly-Leu-Lys(Dnp)-Ala-Arg-NH2 (Mca-KPLGLK(Dnp)AR-NH2; SMILES COc1ccc2c(CC(=O)N[C@@H](CCCCN)C(=O)N3CCC[C@H]3C(=O)N[C@@H](CC(C)C)C(=O)NCC(=O)N[C@@H](CC(C)C)C(=O)N[C@@H](CCCCNc3ccc([N+](=O)[O-])cc3[N+](=O)[O-])C(=O)N[C@@H](C)C(=O)N[C@@H](CCCNC(=N)N)C(N)=O)cc(=O)oc2c1) [fMMPSshort]”, the figures for the Km with MMP-9 [19] and with MMP-12 [20] were 27.7 µM and 130 µM, respectively.
